Data as given in US20250145652A1, “INORGANIC SALTS OF NICOTINAMIDE MONONUCLEOTIDE AS ANTI-AGING AGENTS” (Life Biosciences Inc., priority 2018, published 2025).

Tested on: COV434 cells
Experiment: NAD cell assay (NAD cycling method), cellular NAD+ levels
Assay type: cell-based, human
Conditions: NAD levels in COV434 cells, 200 uM, 4 hr; for Fold increase compared to NMN: normalised to protein; for Fold Increase compared to NMN on a molar basis: mole per mole comparison of salt and parent
Experimental: NAD levels were assayed based on the NAD cycling method of Zhu and Rand, PLoS One (2012), herein incorporated by reference. COV434 cells were maintained in 6 well plates and treated with the indicated compounds at a concentration of 200 uM for 4 hr. Media was removed, plates were washed in cold PBS and cells were scraped down in NAD extraction buffer containing 10 mM nicotinamide, 50 mM Tris HCl, 0.1% Triton X-100. Cells were homogenised by sonication for 5 seconds, and samples were centrifuged at 7,000 g for 5 min at 4 degrees. Aliquots were taken for later protein assay, and samples were then passed through 10 kDa amicon filters at 14,000 g, 30 min at 4 degrees to remove proteins from the sample. Each sample was measured in technical triplicate, with 25 μL sample added to 100 μL ADH cycling mix (0.2 mg/ml alcohol dehydrogenase enzyme, 2% ethanol, 100 mM Tris pH 8.5). Samples were allowed to cycle for 10 min at room temperature, followed by 50 μL addition of an MTT/PMS solution (0.1 mM phenazine methosulfate, 0.8 mM 3-(4,5-Dimethylthiazol-2-yl)-2,5-diphenyltetrazolium bromide), 100 mM Tris-HCl pH 8.5). Plates were then incubated for 15 min and absorbance was measured at 570 nm. NAD concentrations were extrapolated from a standard curve, and normalised to protein concentrations determined by BCA protein assay.
The fold increase is obtained through a direct comparison on a mole per mole between the compared salt and its parent counterpart.

Row | SMILES | Fold increase compared to NMN | Fold Increase compared to NMN on a molar basis
1 | NC(=O)c1ccc[n+]([C@@H]2O[C@H](COP(=O)([O-])[O-])[C@@H](O)[C@H]2O)c1.[Na+] [Compound I-001, Sodium ((2R,3S,4R,5R)-5-(3-carbamoylpyridin-1-ium-1-yl)-3,4-dihydroxytetrahydrofuran-2-yl)methyl phosphate] | 1.7 | 1.78
2 | NC(=O)c1ccc[n+]([C@@H]2O[C@H](COP(=O)([O-])O)[C@@H](O)[C@H]2O)c1 [NMN, nicotinamide mononucleotide] | 1.0 | 1.0
